Experimental data reported in PubChem BioAssay AID624404 (Broad Institute, 2012).
Results filed as inconclusive are left out. Activity calls are given as the source filed them.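 The calls were made as follows: active = luciferase signal rise whose fitted curve crosses a set activity limit at or below the top valid tested dose; inconclusive = flat fit with 30 to 70% rise, or poor fit; inactive = signal falling, flat within 30%, or crossing above top dose.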

Each compound was assayed on D54 LucT luciferase reporter counterscreen, luminescence, 24 h (assay: reporter signal increase, D54 LucT cells – cell-based, luminescence, cherry pick, counter-screen for N-linked glycosylation inhibitor project, dose response (AID 624404)).

Question: For `CSCCOC(=O)c1[nH]c2c(c1C)C(=O)CC(c1ccco1)C2` (stereo not drawn), which AC35 is on record?
Answer: 627 nM

Question: `COc1ccc(-c2cc(C(=O)NCC(c3ccccc3)N(C)C)c3ccccc3n2)cc1OC` (stereo not drawn) was tested. Which AC35 did it give?
Answer: 1100 nM

Question: For `COc1ccc(CC(=O)NCc2ccc(-n3cccc3)cc2)cc1OC`, which AC35 is on record?
Answer: 1610 nM

Question: For `COc1ccc(Sc2nnc(Cc3ccccc3)c3ccccc23)cc1`, which AC35 is on record?
Answer: 4370 nM

Question: How did the AC35 turn out when `Cc1ccc2c(c1)NC(=O)[C@@]1(C)[C@@H](c3ccccc3)[C@H]3COc4ccccc4[C@@H]3N1C2=O` was run?
Answer: 371 nM

Question: With `COc1cc(-c2[nH]ncc2CN2CCSCC2)cc(OC)c1OC` as the compound, how does the AC35 read?
Answer: 3500 nM

Question: For `Nc1ccc(C(=O)Nc2ccccc2N)cc1`, which AC35 is on record?
Answer: 744 nM

Question: Which AC35 does the source give for `CCc1cccc(CC)c1NC(=O)CN1C2CCCC1CC(NC(=O)Nc1cccc(OC)c1)C2` (stereo not drawn) here?
Answer: 3140 nM

Question: How did the AC35 turn out when `O=c1cc(-c2ccc(O)cc2)oc2cc(O)c(C3OC(CO)C(O)C(O)C3O)c(O)c12` (stereo not drawn) was run?
Answer: 15.1 nM

Question: `CCN1C(=O)Nc2cccc3cccc1c23` was tested. Which AC35 did it give?
Answer: 3140 nM

Question: For `Cc1cnc2cc(Cl)c(Cl)cc2n1`, which AC35 is on record?
Answer: 5410 nM

Question: Which AC35 does the source give for `COCCNC(=O)c1cc(-c2ccccc2OC)on1` here?
Answer: 3840 nM

Question: `Cn1cccc1/C=C1\SC(=Nc2ccccc2)NC1=O` was tested. Which AC35 did it give?
Answer: 473 nM

Question: How did the AC35 turn out when `O=C(CCN1C(=O)/C(=C/c2cccs2)SC1=S)N1CCCCC1` was run?
Answer: 4530 nM

Question: For `Cc1ccc(S(=O)(=O)C(NC(=O)c2ccccc2)=C(Cl)Cl)cc1`, which AC35 is on record?
Answer: 4390 nM

Question: How did the AC35 turn out when `CCOC(=O)n1c(=O)n(Cc2ccc(OC)cc2)c2ccccc21` was run?
Answer: > 19500 nM (inactive)

Question: Which AC35 does the source give for `O=C(NCc1cccs1)C1Cc2c(-c3ccc(Cl)cc3)ccnc2O1` (stereo not drawn) here?
Answer: 166 nM

Question: `NC(=O)CC(NC(=O)Cc1ccc(Br)cc1)c1ccc(NC2CCN(Cc3ccccc3)CC2)c([N+](=O)[O-])c1` (stereo not drawn) was tested. Which AC35 did it give?
Answer: 983 nM

Question: `Cc1nc(-c2ccccc2)sc1-c1nc(-c2ccncc2)ncc1S(=O)(=O)c1ccccc1` was tested. Which AC35 did it give?
Answer: 411 nM

Question: How did the AC35 turn out when `O=C(/C=C/Sc1ccccc1)c1ccc(Cl)cc1` was run?
Answer: 370 nM

Question: `CN(Cc1ccccc1)c1nc2c(c(=O)[nH]c(=O)n2C)n1CCCc1ccccc1` was tested. Which AC35 did it give?
Answer: 909 nM

Question: With `CCN1C(=O)c2cccc3c(S(=O)(=O)Nc4ccccc4OC)ccc1c23` as the compound, how does the AC35 read?
Answer: 896 nM

Question: How did the AC35 turn out when `COc1ccc(C(=O)n2c(-c3ccco3)nc3ccccc32)cc1` was run?
Answer: 934 nM

Question: For `COc1ccc([C@@H]2[C@@H]3C(=O)N(C(C)(C)C)C(=O)[C@@H]3[C@]3(Cc4ccccc4)C(=O)N(c4cccc(C)c4)C(=O)N23)cc1`, which AC35 is on record?
Answer: 843 nM

Question: With `Cc1ccc(S(=O)(=O)N2CCN(C(=O)COC(=O)c3cc([N+](=O)[O-])ccc3NCCO)CC2)c(C)c1` as the compound, how does the AC35 read?
Answer: 1460 nM

Question: Which AC35 does the source give for `Cc1ccc(N2CC(C(=O)Nc3ccc(S(=O)(=O)N4CCOCC4)cc3)CC2=O)cc1Cl` (stereo not drawn) here?
Answer: 2530 nM

Question: How did the AC35 turn out when `CN(C)CCNc1cccc2sc3ccc(O)cc3c(=O)c12` was run?
Answer: 1980 nM

Question: For `COc1ccc(C(=O)c2sc(Nc3ccccc3)nc2N)cc1`, which AC35 is on record?
Answer: 645 nM

Question: Which AC35 does the source give for `O=C1N[C@H]2CC=C[C@H]2N(Cc2cccs2)c2ccccc21` here?
Answer: 199 nM

Question: Which AC35 does the source give for `COc1cc(Nc2nc3c(N)cc(C(F)(F)F)cc3nc2-c2ccccc2)cc(OC)c1OC` here?
Answer: 3870 nM

Question: With `Nc1[nH]nc2nc(NCc3ccccc3)c3c(c12)CCN(Cc1ccccc1)C3` as the compound, how does the AC35 read?
Answer: 2840 nM

Question: `CC(C)c1ccc(OCc2ccc(C(=O)N3CCCC3)o2)cc1` was tested. Which AC35 did it give?
Answer: 850 nM

Question: Which AC35 does the source give for `Cc1cccn2c(=O)c3cc(C(=O)N4CCC5(CC4)OCCO5)n(C)c3nc12` here?
Answer: 310 nM

Question: With `COc1cc(C(=O)NC2CCN(C)CC2)ccc1Nc1ncc2c(n1)N(CCc1ccccc1)CCC(=O)N2C` as the compound, how does the AC35 read?
Answer: 172 nM

Question: With `COc1cc(F)ccc1-c1csc(C(NC(C)=O)c2ccc(F)c(F)c2)n1` (stereo not drawn) as the compound, how does the AC35 read?
Answer: 270 nM

Question: With `COc1ccc(OC)c2nc3c(C(=O)NCCN(C)C)cccc3nc12` as the compound, how does the AC35 read?
Answer: 384 nM

Question: With `CCOC(=O)c1[nH]c(C)c(C(=O)c2ccc(C)cc2)c1C` as the compound, how does the AC35 read?
Answer: 1100 nM

Question: With `O=S(=O)(Cc1ccc(Cl)cc1Cl)c1ccc(Cl)cc1` as the compound, how does the AC35 read?
Answer: 1490 nM

Question: `Cc1ccc2nc(-c3ccccc3)cc(C(=O)N3CC(C)OC(C)C3)c2c1` (stereo not drawn) was tested. Which AC35 did it give?
Answer: 1920 nM

Question: Which AC35 does the source give for `O=C(N/N=C/c1cccs1)c1cc(-c2cccc3ccccc23)n[nH]1` here?
Answer: 3530 nM

Question: `Cn1c(SCC(=O)c2ccccc2)ncc(C(=O)Nc2ccccc2)c1=O` was tested. Which AC35 did it give?
Answer: 382 nM

Question: `N=c1c(S(=O)(=O)c2ccc(Cl)cc2)cc2c(=O)n3ccccc3nc2n1CCc1ccccc1` was tested. Which AC35 did it give?
Answer: 564 nM

Question: Which AC35 does the source give for `COc1ccc2c(c1)C(=O)N1[C@H]3c4cc(OC)ccc4OC[C@@H]3[C@H](c3ccccc3)[C@]1(C)C(=O)N2` here?
Answer: 99.7 nM
